The test system of data set [1] is Candida albicans. The data set is described as follows: In vitro fungistatic effect. It counts as cell-based.
Data set [2] relates to Walker-Carcinoma 256. Put plainly: Cancerostatic effect: Walker-Carcinoma 256 transplanted in rats. Type of data set: in vivo, female Sprague-Dawley rats. As to conditions: for Tumor weight: three days prior to tumor application, day 7, average of 20 animals; for Difference (tumor weight): vs control. On the procedure:
(§1) Ready-to-be-transplanted tumors of various kinds were taken from freshly killed rats, comminuted coarsely and pulverized with addition of 8 ml of physiological sodium chloride solution. Female Sprague-Dawley rats weighing 80 to 100 g were used as test animals. The respective tumor cell suspension was applied subfacially to the animals in an amount of 0.5 ml per animal under sterile conditions in the neck area. On the seventh day after the transplantation the animals were killed, the tumors taken out and weighed. The substances according to the instant invention were in each case applied orally three days prior to the tumor application by means of a throat tube (in 10 ml 1% hydrous methylhydroxylethyl cellulose solution per kg of body weight).

For data set [3], the system named is Candida albicans-219. Put plainly: Resistance increase in case of Candida albicans infection in mice. Type of data set: in vivo, Candida albicans; female NMRI mice. The settings on record: 50 mg per kg oral, one hour after i.v. infection, after six days. On the procedure:
Female, adult NMRI mice weighing 25-30 g were infected with Candida albicans-219. A suspension of approximately 300,000 germs in 0.2 ml physiological sodium chloride per animal was given intravenously. One hour later, 50 mg of the compound of Example 1, per kg body weight, were applied orally by way of neck tube, dissolved in 10 ml 0.1% methyl-hydroxyethyl cellulose. The control group received the same solution without active material. After six days, 18 of the 30 animals of the control group were dead, but only 3 of the 30 animals of the test group, which corresponds to a survival rate of 90% and makes clearly evident the resistance-increasing effect.

In data set [4] the test system is leucocyte number. Put plainly: Alteration of the leucocyte number in rats. It counts as in vivo, female Sprague-Dawley rats. The settings on record: oral, fourth day, ten rats. The procedure:
(a) Alteration of the leucocyte number
The active substance was dissolved in each case in 10 ml of a 1% methyl-hydroxyethyl cellulose solution per kg of body weight and orally applied by means of a neck tube to ten fasting female Sprague-Dawley rats in each case. On the fourth day, blood was taken retroorbitally and the leucocyte number was determined by means of a coult counter.

A short description of data set [5]: Acute toxicity (LD50) in mice. As to conditions: mouse, in vivo, ip, single intraperitoneal administration. On the procedure: (§2) These values are much higher than the pharmacologically effective dosages (0.5-50 mg/kg body weight).
Data set [6] concerns DC-Carcino-Sarcoma. Put plainly: Cancerostatic effect: DC-Carcino-Sarcoma transplanted in rats. Type of data set: in vivo, female Sprague-Dawley rats. As to conditions: for Tumor weight: three days prior to tumor application, day 7, average of 20 animals; for Difference (tumor weight): vs control. The procedure:
as §1

Data set [7] is described as follows: Acute toxicity (LD50) in rats. The settings on record: rat, in vivo. The procedure:
as §2

For the molecule `CC(C)(N1CC1C#N)N1CC1C(N)=O` (centres unmarked) [Example 1, 2-[2-Cyanoaziridinyl-(1)]-2-[2-carbamoylaziridinyl-(1)]-propane], the fungistatic effect result in data set [1] was “no fungistatic effect”. The Tumor weight in data set [2] (5.0 mg/kg oral) was 11.8 g; in data set [2] (50.0 mg/kg oral), 12.1 g; in data set [2] (100.0 mg/kg oral) it was 15.6 g; in data set [6] (150 mg/kg oral), 5.9 g; in data set [6] (300 mg/kg oral), 9.8 g. The “Difference (tumor weight)” value in data set [2] (5.0 mg/kg oral) is recorded as -27.1%; in data set [2] (50.0 mg/kg oral), -25.4%; in data set [6] (150 mg/kg oral) it was -67.0%; in data set [6] (300 mg/kg oral) it was -45.0%. The survival rate in data set [3] came out at 90%. In data set [3] (control 18 of 30), the dead animals was 3 of the 30 animals. Besides, the results for the “proportion of the average leucocyte number of the test group to that of the control group” value in data set [4] (50 mg per kg body weight) and in data set [4] (200 mg per kg body weight) were 1,70 and 1,55, respectively. The LD50 in data set [5] amounted to 2270 mg/kg; in data set [7] (ip, single intraperitoneal administration, read-out: acute toxicity (LD50)) it was 2550 mg/kg; in data set [7] (oral administration, read-out: LD50), 3100 mg/kg.
